Ends that are not written are not given here.
Legend:
[1] = system: S. mutans from 1 representative S-ECC child; assay: Inhibition of S. mutans clinical isolate by plantaricin (MIC); assay type: cell-based, Streptococcus mutans; details: clear culture plated, additional 48 hours
Procedure: (§1) Bacteriocins, antimicrobial molecules, produced by L. plantarum are known as plantaricins. Peptide plantaricin-149 (acetate) powers (Creative Peptides, Shirley, USA) were dissolved in ddH2O to prepare plantaricin solutions. S. mutans (3.6×10^3 CFU/ml) and C. albicans (3.1×10^1 CFU/ml) from 1 representative S-ECC child were selected and treated with the plantaricin with a range of concentration (0-400 μg/ml). The mixtures of plantaricin with S. mutans or C. albicans were grown for 24 hours in TSBYE with 1% glucose in 96-well plates. Clear culture after 24 hours' incubation indicated no growth of microorganisms. Therefore, the minimal inhibition concentration (MIC) of plantaricin-149 was defined as the lowest concentration that inhibited the growth of S. mutans and C. albicans.
(§2) S. mutans (3.6×10^3 CFU/ml) and C. albicans (3.1×10^1 CFU/ml) were treated by the plantaricin ranging from 0-400 ng/ml respectively, and grew for 24 h in 1% glucose condition. The MIC of plantaricin was 400 ng/ml for S. mutans and 200 ng/ml for C. albicans. The clear culture was plated and incubated for additional 48 hours.

[2] = system: C. albicans from 1 representative S-ECC child; assay: Inhibition of C. albicans clinical isolate by plantaricin (MIC); assay type: cell-based, Candida albicans; details: clear culture plated, additional 48 hours
Procedure: as §1, §2

YSLQMGATAIKQVKKLFKKKGG [plantaricin]
nature of inhibitory effect on S. mutans [1]: bacteriostatic
nature of inhibitory effect on C. albicans [2]: fungistatic

Source: patent US20250082700A1, “METHODS AND COMPOSITIONS OF TREATING BIOLFILM-RELATED DISEASES” (UNIVERSITY OF ROCHESTER, priority 2022, published 2025)
